Source: patent publication US20240255464A1 (priority 2021, published 2024)
Where “and” joins values, the source holds several entries; their conditions need not be identical. Equal entries are not always repeated. Where two headings read alike, the source gives them in different places.

System: HL-1 cells
Type: cell-based
[1] = HL-1 cells, 100 nM nifedipine in Tyrode's solution, 60 s
[2] = HL-1 cells, 100 nM nifedipine in Tyrode's solution, 120 s

| SMILES | APD50 | APD90 | Amplitude | Refractory Period | effect on action potential amplitude | effect on action potential duration at 50% or 90% repolarization | effect on repolarization duration | effect on spike amplitude | reversibility of the effect | APD50 [1] | APD90 [1] | Amplitude [1] | Refractory Period [1] | APD50 [2] | APD90 [2] | Amplitude [2] | Refractory Period [2] |
| --- | --- | --- | --- | --- | --- | --- | --- | --- | --- | --- | --- | --- | --- | --- | --- | --- | --- |
| NC1=N[C@H](O)[C@H]2[C@H]3O[C@]4(O)O[C@@H]([C@@H](O)[C@@]2(N1)[C@@H]4O)[C@]3(O)CO [TTX, tetrodotoxin] | 81.2 ms and 65.5 ms | 166.6 ms and 141.8 ms | 113.4 mV and 91.9 mV | 948.4 ms and 958.6 ms | lowers the amplitude | reduces the action potential duration | shortening the repolarization duration | reducing the spike amplitude | reversible |  |  |  |  |  |  |  |  |
| COC(=O)C1=C(C)NC(C)=C(C(=O)OC)C1c1ccccc1[N+](=O)[O-] [Nifedipine, nifedipine] |  |  |  |  |  |  |  |  |  | 106.0 ms | 172.9 ms | 102.9 mV | 964.8 ms | 59.1 ms | 90.1 ms | 88.9 mV | 1022.3 ms |
